Test results reported in patent EP1705169A2, “Triphenylalkene derivatives and their use as selective estrogen receptor modulators” (priority 1999, dated 2001).
Read-outs that look alike come from different tables or passages of the source.

Key:
[1] = system: MCF-7 cells; experiment: cells; settings: for inhibition at 1 µM / Emax / cytotoxicity at 10 µM: Homo sapiens, MCF7, 96 h; for inhibition at 1 µM: read-out: Antagonism at 1 µM (% of full antagonism); for Emax: read-out: Maximal Agonism (% of E2); for Kill of MCF-7 cells (in words): highest investigated concentration (10 µM); for Hormonal activity (in words): summary statement referring to Table 2; for Estrogenic and antiestrogenic action (in words): summary statement referring to Tables 2, 3 and 4
Method: For experiments involving hormone or anti-hormone treatment, the cells in exponential growth phase were precultivated in the absence of estradiol for one day. […] After the incubation period the medium was removed. The exposure to study drugs was started immediately by adding fresh medium with 5 % stripped serum. Half of the cells were grown with estradiol, half without estradiol. Study compounds (dissolved in ethanol in 0.01 M concentration and diluted with the growth medium as appropriate) were added. The final concentrations of the compounds were 1,10, and 100 nM, and 1 and 10 µM. The cells were incubated for four days.
This method allows evaluation of estrogenicity based on the ability of the compounds to stimulate the growth of the estrogen-dependent cells in the absence of estradiol. Estrogenicity was estimated by comparing the maximal growth stimulus (at any concentration) of study compound as per cent from growth stimulus by estradiol (100 % stimulus). […] At high concentrations molecules may also show toxicity. Toxicity was estimated as the fraction of dead cells (i.e. 100 % means that all cells have died during the exposure).

[2] = system: immature female rats; experiment: 3 day uterotropic assay in immature female rats (given alone and with estradiol); type: in vivo; settings: for Estrogen antagonism (% inhibition of estradiol) Given with estradiol / Uterotropic effect (% of estradiol) Given without estradiol: 3 days, immature female rats
Method: The values are given at two dose levels, low i.e. 3―5 mg/kg and high i.e. 10―50 mg/kg. Estrogenic activity can be estimated also after a 4 weeks' treatment of ovariectomized rats based on the uterine size.

[3] = read-out: Maximal Cell Kill (% fraction of dead cells), With estradiol (E2), toxicity at 10 µmol/l, 100 = all cells dead
[4] = read-out: Maximal Cell Kill (% fraction of dead cells), Without estradiol (E2), toxicity at 10 µmol/l, 100 = all cells dead

Work on `OCCOc1ccc(/C(=C(/CCCl)c2ccccc2)c2ccccc2)cc1` [FC-1271a, 2-[4-(4-chloro-1,2-diphenyl-but-1-enyl)phenoxy]ethanol, reference compound] yielded an inhibition at 1 µM [1] of 21%, an Emax [1] of 23% and a cytotoxicity at 10 µM [1, 3] of 80%. The cytotoxicity at 10 µM [1, 4] was 50%.

Molecule `CCCCN(C)C(=O)CCCCCCCCCC[C@@H]1Cc2cc(O)ccc2[C@H]2CC[C@]3(C)[C@@H](O)CC[C@H]3[C@H]12` [ICI 164,384, reference compound] has an inhibition at 1 µM [1] of 100%, an Emax [1] of 9% and a cytotoxicity at 10 µM ([1]; read-out: Maximal Cell Kill (% fraction of dead cells)) of 100%.

`CN(C)CCOc1ccc(/C(=C(/CCCl)c2ccccc2)c2ccc(F)cc2)cc1` [No. 1, (E)-(2-{4-[4-Chloro-1-(4-fluorophenyl)-2-phenylbut-1-enyl]phenoxy}ethyl)-dimethylamine] gave an inhibition at 1 µM [1] of 8%, an Emax [1] of 1% and a cytotoxicity at 10 µM [1, 3] of 100%. The cytotoxicity at 10 µM [1, 4] was 100%, the “Estrogenic action in vitro (in words)” value ([1]; Table 2) was “no estrogenic action in vitro” and the “Kill of MCF-7 cells (in words)” value ([1]; Table 2) was “kill MCF-7 cells (human breast cancer cells) effectively”. For the same molecule, the “Hormonal activity (in words)” value [1] was “weak hormonal activity”, the “Estrogenic action in vivo (in words)” value ([2]; Table 3) was “weak estrogen in vivo” and the “Estrogen antagonism (% inhibition of estradiol) Given with estradiol” value ([2]; dose 3–5 mg/kg) was 26 % inhibition of estradiol. For the same molecule, the “Uterotropic effect (% of estradiol) Given without estradiol” value ([2]; dose 3–5 mg/kg) was 42 % of estradiol, the “Estrogen antagonism (% inhibition of estradiol) Given with estradiol” value ([2]; dose 10–50 mg/kg) was 31 % inhibition of estradiol and the “Uterotropic effect (% of estradiol) Given without estradiol” value ([2]; dose 10–50 mg/kg) was 74 % of estradiol.

In the case of `CN(C)CCOc1ccc(/C(=C(\CCCl)c2ccccc2)c2ccc(F)cc2)cc1` [No. 2, (Z)-(2-{4-[4-Chloro-1-(4-fluorophenyl)-2-phenylbut-1-enyl]phenoxy}ethyl)-dimethylamine], the inhibition at 1 µM [1] is reported as 29%, the Emax [1] is reported as 100% and the cytotoxicity at 10 µM [1, 3] is reported as 100%. For the same molecule, the cytotoxicity at 10 µM [1, 4] was 32%.

`CN(C)CCOc1ccc(/C(=C(/CCCl)c2ccc(Cl)cc2)c2ccc(Cl)cc2)cc1` [No. 4, (E)-(2-{4-[4-Chloro-1,2-bis(4-chlorophenyl)but-1-enyl]phenoxy}ethyl)-dimethylamine] was tested, and the inhibition at 1 µM [1] was 10%, the Emax [1] was 10% and the cytotoxicity at 10 µM [1, 3] was 100%. The cytotoxicity at 10 µM [1, 4] was 90%.

Molecule `CN(C)CCOc1ccc(/C(=C(\CCCl)c2ccc(Cl)cc2)c2ccc(Cl)cc2)cc1` [No. 5, (Z)-(2-{4-[4-Chloro-1,2-bis(4-chlorophenyl)but-1-enyl]phenoxy}ethyl)-dimethylamine] has an inhibition at 1 µM [1] of 31%, an Emax [1] of 11% and a cytotoxicity at 10 µM [1, 3] of 100%. It also gave a cytotoxicity at 10 µM [1, 4] of 100%.

Work on `OCCOc1ccc(/C(=C(/CCCl)c2ccccc2)c2ccc(F)cc2)cc1` [No. 8, (E)-2-{4-[4-Chloro-2-phenyl-1-(4-fluorophenyl)but-1-enyl]phenoxy} ethanol] yielded an inhibition at 1 µM [1] of 92%, an Emax [1] of 31% and a cytotoxicity at 10 µM [1, 3] of 52%. It also gave a cytotoxicity at 10 µM [1, 4] of 2%.

With `OCCOc1ccc(/C(=C(/CCCl)c2ccc(Cl)cc2)c2ccc(Cl)cc2)cc1` [No. 9, (E)-2-{4-[4-Chloro-1,2-bis(4-chlorophenyl)but-1-enyl]phenoxy}ethanol] the inhibition at 1 µM [1] was 9%, the Emax [1] was 14% and the cytotoxicity at 10 µM [1, 3] was 62%. It also gave a cytotoxicity at 10 µM [1, 4] of 45%.

Work on `OCCOc1ccc(C(=C(CCCl)c2ccccc2)c2ccc(OCCO)cc2)cc1` [No. 16, 2-(4-{4-Chloro-1-[4-(2-hydroxyethoxy)phenyl]-2-phenyl-but-1-enyl}phenoxy)-1-ethanol] yielded an inhibition at 1 µM [1] of 23%, an Emax [1] of 22% and a cytotoxicity at 10 µM [1, 3] of 96%. For the same molecule, the cytotoxicity at 10 µM [1, 4] was 90%, the “Kill of MCF-7 cells (in words)” value ([1]; Table 2) was “kill MCF-7 cells (human breast cancer cells) effectively” and the “Hormonal activity (in words)” value [1] was “weak hormonal activity”.

`OCCOc1ccc(/C(=C(/CCCl)c2ccccc2)c2ccc(Cl)cc2)cc1` [No. 17, (E)-2-{4-[4-Chloro-2-phenyl-1-(4-chlorophenyl)but-1-enyl]phenoxy} ethanol] gave an inhibition at 1 µM [1] of 17%, an Emax [1] of 0% and a cytotoxicity at 10 µM [1, 3] of 38%. For the same molecule, the cytotoxicity at 10 µM [1, 4] was 44%.

In the case of `OCCOc1cccc(/C(=C(/CCCl)c2ccccc2)c2ccccc2)c1` [No. 18, (Z)-2-[3-(4-Chloro-1,2-diphenyl-but-1-enyl)phenoxy]ethanol], the inhibition at 1 µM [1] is reported as 1%, the cytotoxicity at 10 µM [1, 3] is reported as 40% and the cytotoxicity at 10 µM [1, 4] is reported as 10%. For the same molecule, the “Estrogenic and antiestrogenic action (in words)” value [1] was “weak estrogenic and no antiestrogenic action”.

`CN(C)CCOc1ccc(/C(=C(/CCCl)c2ccc(Cl)cc2)c2ccccc2)cc1` [No. 23, (Z)-(2-{4-[4-Chloro-2-(4-chlorophenyl)-1-phenylbut-1-enyl]phenoxy}ethyl)-dimethylamine] gave an inhibition at 1 µM [1] of 5%, an Emax [1] of 14% and a cytotoxicity at 10 µM [1, 3] of 93%. The cytotoxicity at 10 µM [1, 4] was 89%.

`CN(C)CCOc1ccc(/C(=C(\CCCl)c2ccc(Cl)cc2)c2ccccc2)cc1` [No. 24, (E)-(2-{4-[4-Chloro-2-(4-chlorophenyl)-1-phenylbut-1-enyl]phenoxy}ethyl)-dimethylamine] showed an inhibition at 1 µM [1] of 4%, an Emax [1] of 46% and a cytotoxicity at 10 µM [1, 3] of 98%. For the same molecule, the cytotoxicity at 10 µM [1, 4] was 89%.

With `CN(C)CCOc1ccc(/C(=C(/CCCl)c2ccc(F)cc2)c2ccccc2)cc1` [No. 25, (Z)-(2-{4-[4-Chloro-2-(4-fluorophenyl)-1-phenylbut-1-enyl]phenoxy}ethyl)-dimethylamine] the inhibition at 1 µM [1] was 6%, the Emax [1] was 17% and the cytotoxicity at 10 µM [1, 3] was 27%. The cytotoxicity at 10 µM [1, 4] was 42% and the “Estrogenic and antiestrogenic action (in words)” value [1] was “weak estrogenic and no antiestrogenic action”.

Work on `COc1ccc(/C(=C(\CCCl)c2ccc(Cl)cc2)c2ccc(OCCN(C)C)cc2)cc1` [No. 26, (Z)-(2-{4-[4-Chloro-2-(4-chlorophenyl)-1-(4-methoxyphenyl)but-1-enyl]phenoxy}-ethyl)dimethylamine] yielded an inhibition at 1 µM [1] of 11%, an Emax [1] of 0% and a cytotoxicity at 10 µM [1, 3] of 98%. For the same molecule, the cytotoxicity at 10 µM [1, 4] was 97%, the “Kill of MCF-7 cells (in words)” value ([1]; Table 2) was “kill MCF-7 cells (human breast cancer cells) effectively” and the “Hormonal activity (in words)” value [1] was “weak hormonal activity”.

With `COc1ccc(/C(=C(/CCCl)c2ccc(Cl)cc2)c2ccc(OCCN(C)C)cc2)cc1` [No. 27, (E)-(2-{4-[4-Chloro-2-(4-chlorophenyl)-1-(4-methoxyphenyl)but-1-enyl]phenoxy}-ethyl)dimethylamine] the inhibition at 1 µM [1] was 5%, the Emax [1] was 0% and the cytotoxicity at 10 µM [1, 3] was 100%. The cytotoxicity at 10 µM [1, 4] was 99%, the “Kill of MCF-7 cells (in words)” value ([1]; Table 2) was “kill MCF-7 cells (human breast cancer cells) effectively” and the “Hormonal activity (in words)” value [1] was “weak hormonal activity”.

`OCCOc1ccc(/C(=C(/CCCl)c2ccccc2)c2cccc(O)c2)cc1` [No. 34, (E)-3-{4-Chloro-1-[4-(2-hydroxyethoxy)phenyl]-2-phenyl-but-1-enyl}-phenol] gave an inhibition at 1 µM [1] of 0%, an Emax [1] of 0% and a cytotoxicity at 10 µM [1, 3] of 0%. For the same molecule, the cytotoxicity at 10 µM [1, 4] was 0%.

`OCCCOc1ccc(/C(=C(/CCCl)c2ccccc2)c2ccccc2)cc1` [No. 35, (Z)-3-[4-(4-Chloro-1,2-diphenylbut-1-enyl)phenoxy]propan-1-ol] gave an inhibition at 1 µM [1] of 14%, a cytotoxicity at 10 µM [1, 3] of 50% and a cytotoxicity at 10 µM [1, 4] of 50%. The “Estrogen antagonism (% inhibition of estradiol) Given with estradiol” value ([2]; dose 3–5 mg/kg) was 35 % inhibition of estradiol, the “Uterotropic effect (% of estradiol) Given without estradiol” value ([2]; dose 3–5 mg/kg) was 43 % of estradiol and the “Estrogen antagonism (% inhibition of estradiol) Given with estradiol” value ([2]; dose 10–50 mg/kg) was 32 % inhibition of estradiol. For the same molecule, the “Uterotropic effect (% of estradiol) Given without estradiol” value ([2]; dose 10–50 mg/kg) was 66 % of estradiol.

`COc1ccc(/C(=C(\CCCl)c2ccc(Cl)cc2)c2ccc(OCCO)cc2)cc1` [No. 37, (Z)-2-{4-[4-Chloro-2-(4-chlorophenyl)-1-(4-methoxyphenyl)but-1-enyl]-phenoxy} ethanol] was tested, and the inhibition at 1 µM [1] was 0%, the Emax [1] was 4% and the cytotoxicity at 10 µM [1, 3] was 41%. The cytotoxicity at 10 µM [1, 4] was 39%.

For `OCCOc1ccc(/C(=C(/CCCl)c2ccc(O)cc2)c2ccccc2)cc1` [No. 42, (Z)-4-{1-(2-Chloroethyl)-2-[4-(2-hydroxyethoxy)phenyl]-2-phenylvinyl}phenol], the inhibition at 1 µM [1] was 13%, the Emax [1] was 9% and the cytotoxicity at 10 µM [1, 3] was 54%. It also gave a cytotoxicity at 10 µM [1, 4] of 23%.

Molecule `OCCOc1ccc(/C(=C(\CCCl)c2ccc(O)cc2)c2ccccc2)cc1` [No. 43, (E)-4-{1-(2-Chloroethyl)-2-[4-(2-hydroxyethoxy)phenyl]-2-phenylvinyl}phenol] has an inhibition at 1 µM [1] of 6%, an Emax [1] of 78% and a cytotoxicity at 10 µM [1, 3] of 22%. For the same molecule, the cytotoxicity at 10 µM [1, 4] was 80%.

`CC/C(=C(\c1ccccc1)c1ccc(OCCN(C)C)cc1)c1ccccc1` [Tamoxifen, reference compound] showed an inhibition at 1 µM [1] of 43%, an Emax [1] of 31% and a cytotoxicity at 10 µM [1, 3] of 100%. The cytotoxicity at 10 µM [1, 4] was 100%, the “Estrogen antagonism (% inhibition of estradiol) Given with estradiol” value ([2]; dose 3–5 mg/kg) was 51 % inhibition of estradiol and the “Uterotropic effect (% of estradiol) Given without estradiol” value ([2]; dose 3–5 mg/kg) was 44 % of estradiol. The “Estrogen antagonism (% inhibition of estradiol) Given with estradiol” value ([2]; dose 10–50 mg/kg) was 58 % inhibition of estradiol and the “Uterotropic effect (% of estradiol) Given without estradiol” value ([2]; dose 10–50 mg/kg) was 51 % of estradiol.
